Structures are written as SMILES.

For the experiment, the target named is human GPR40 receptor (Homo sapiens, UniProt O14842). The experiment is described as follows: Assay II: IP1 accumulation (IPOne HTRF) in 1321N1 cells stably expressing human GPR40. In kind it is cell-based. The following applies: 1321N1 cells expressing human GPR40, stimulation 1 h at 37° C., 5% CO2, LiCl 50 mM. On the procedure:
IP1 accumulation measurements using the IPOne assay system—1321N1 cells stably expressing human GPR40 receptor (Euroscreen, Belgium) are seeded 24 h before the assay in white 384-well plates in culture medium containing 10% FCS, 1% Na-Pyruvate and 400 μg/mL G418. IP1 is assayed according to the manufacturers description (Cisbio Bioassays, France). In brief, the assay is started by substitution of the culture medium by stimulation buffer (Hepes 10 mM, CaCl2 1 mM, MgCl2 0.5 mM, KCl 4.2 mM, NaCl 146 mM, glucose 5.5 mM and LiCl 50 mM, pH 7.4). Cells are stimulated for 1 h at 37° C., 5% CO2 by addition of the compounds that are diluted in stimulation buffer containing LiCl. Assays are stopped by adding HTRF-conjugates (IP1-d2 and Anti-IP1 cryptate Tb) and lysis buffer, provided by the manufacturer. After an incubation time of 1 h at room temperature plates are measured using an EnVision™, Perkin Elmer. The obtained fluorescence ratios at 665/615 nM are then used to calculate the pEC50 values using Assay Explorer 3.3 Software (Accelrys, Inc.) by interpolation using an IP1 reference curve and subsequent sigmoidal curve fitting allowing for a variable hill slope.

Chain of human GPR40 receptor (O14842 whole entry): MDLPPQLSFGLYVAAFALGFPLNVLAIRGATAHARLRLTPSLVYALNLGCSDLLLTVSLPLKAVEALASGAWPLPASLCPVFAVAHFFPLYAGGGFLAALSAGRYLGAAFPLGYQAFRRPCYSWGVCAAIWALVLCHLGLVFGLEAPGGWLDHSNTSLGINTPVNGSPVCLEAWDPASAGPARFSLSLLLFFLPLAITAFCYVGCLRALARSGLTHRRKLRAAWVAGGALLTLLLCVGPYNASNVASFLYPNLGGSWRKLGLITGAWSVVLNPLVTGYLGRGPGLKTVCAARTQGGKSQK

The compound `Cc1cc(-c2ccn(C)c(=O)c2)cc(C)c1-c1ccc(F)c2c1CC[C@H]2Oc1ccc2c(c1)OC[C@H]2CC(=O)O` [Example 84, 2-((S)-6-((R)-4-(2,6-Dimethyl-4-(1-methyl-2-oxo-1,2-dihydropyridin-4-yl)phenyl)-7-fluoro-2,3-dihydro-1H-inden-1-yloxy)-2,3-dihydrobenzofuran-3-yl)acetic acid] gave an EC50 of 9 nM.
In turn, `Cc1cc(-c2ccc(=O)n(C)c2)cc(C)c1-c1ccc(F)c2c1CC[C@H]2Oc1ccc2c(c1)OC[C@H]2CC(=O)O` [Example 85, 2-((S)-6-((R)-4-(2,6-Dimethyl-4-(1-methyl-6-oxo-1,6-dihydropyridin-3-yl)phenyl)-7-fluoro-2,3-dihydro-1H-inden-1-yloxy)-2,3-dihydrobenzofuran-3-yl)acetic acid] had an EC50 of 7 nM.
Turning to `Cc1cc(-n2cncn2)cc(C)c1-c1ccc(F)c2c1CC[C@H]2Oc1ccc2c(c1)OC[C@H]2CC(=O)O` [Example 86, 2-((S)-6-((R)-4-(2,6-Dimethyl-4-(1H-1,2,4-triazol-1-yl)phenyl)-7-fluoro-2,3-dihydro-1H-inden-1-yloxy)-2,3-dihydrobenzofuran-3-yl)acetic acid], the EC50 is 8 nM.
The value for `Cc1cc(C2CCOC2)cc(C)c1-c1ccc(F)c2c1CC[C@H]2Oc1ccc2c(c1)OC[C@H]2CC(=O)O` (stereo partly drawn) [Example 87, 2-((3S)-6-((1R)-4-(2,6-Dimethyl-4-(tetrahydrofuran-3-yl)phenyl)-7-fluoro-2,3-dihydro-1H-inden-1-yloxy)-2,3-dihydrobenzofuran-3-yl)acetic acid] was 24 nM; that for `Cc1cc(-c2cc(=O)n(C)cn2)cc(C)c1-c1ccc(F)c2c1CC[C@H]2Oc1ccc2c(c1)OC[C@H]2CC(=O)O` [Example 88, 2-((S)-6-((R)-4-(2,6-Dimethyl-4-(1-methyl-6-oxo-1,6-dihydropyrimidin-4-yl)phenyl)-7-fluoro-2,3-dihydro-1H-inden-1-yloxy)-2,3-dihydrobenzofuran-3-yl)acetic acid] was 3 nM; that for `Cc1cc(-c2cnc(=O)n(C)c2)cc(C)c1-c1ccc(F)c2c1CC[C@H]2Oc1ccc2c(c1)OC[C@H]2CC(=O)O` [Example 89, 2-((S)-6-((R)-4-(2,6-Dimethyl-4-(1-methyl-2-oxo-1,2-dihydropyrimidin-5-yl)phenyl)-7-fluoro-2,3-dihydro-1H-inden-1-yloxy)-2,3-dihydrobenzofuran-3-yl)acetic acid] was 9 nM.
Compound `Cc1cc(-c2ccnnc2)cc(C)c1-c1ccc(F)c2c1CC[C@H]2Oc1ccc2c(c1)OC[C@H]2CC(=O)O` [Example 90, 2-((S)-6-((R)-4-(2,6-Dimethyl-4-(pyridazin-4-yl)phenyl)-7-fluoro-2,3-dihydro-1H-inden-1-yloxy)-2,3-dihydrobenzofuran-3-yl)acetic acid] showed an EC50 of 5 nM.
The result for `Cc1cc(-c2ccncn2)cc(C)c1-c1ccc(F)c2c1CC[C@H]2Oc1ccc2c(c1)OC[C@H]2CC(=O)O` [Example 91, 2-((S)-6-((R)-4-(2,6-Dimethyl-4-(pyrimidin-4-yl)phenyl)-7-fluoro-2,3-dihydro-1H-inden-1-yloxy)-2,3-dihydrobenzofuran-3-yl)acetic acid] reads 3 nM; that for `Cc1cc(-c2cnn(C)c(=O)c2)cc(C)c1-c1ccc(F)c2c1CC[C@H]2Oc1ccc2c(c1)OC[C@H]2CC(=O)O` [Example 92, 2-((S)-6-((R)-4-(2,6-Dimethyl-4-(1-methyl-6-oxo-1,6-dihydropyridazin-4-yl)phenyl)-7-fluoro-2,3-dihydro-1H-inden-1-yloxy)-2,3-dihydrobenzofuran-3-yl)acetic acid], 5 nM; that for `COc1nccc(-c2cc(C)c(-c3ccc(F)c4c3CC[C@H]4Oc3ccc4c(c3)OC[C@H]4CC(=O)O)c(C)c2)n1` [Example 93], 4 nM.
As for `Cc1cc(-c2nnn[nH]2)cc(C)c1-c1ccc(F)c2c1CC[C@H]2Oc1ccc2c(c1)OC[C@H]2CC(=O)O` [Example 94, 2-((S)-6-((R)-4-(2,6-Dimethyl-4-(1H-tetrazol-5-yl)phenyl)-7-fluoro-2,3-dihydro-1H-inden-1-yloxy)-2,3-dihydrobenzofuran-3-yl)acetic acid], the midpoint of the response, the EC50, lay at 82 nM.
`Cc1cc(-c2nnn(C)n2)cc(C)c1-c1ccc(F)c2c1CC[C@H]2Oc1ccc2c(c1)OC[C@H]2CC(=O)O` [Example 95, 2-((S)-6-((R)-4-(2,6-Dimethyl-4-(2-methyl-2H-tetrazol-5-yl)phenyl)-7-fluoro-2,3-dihydro-1H-inden-1-yloxy)-2,3-dihydrobenzofuran-3-yl)acetic acid] gave a concentration giving a half-maximal response (EC50) of 3 nM.
The value for `Cc1cc(-c2nnnn2C)cc(C)c1-c1ccc(F)c2c1CC[C@H]2Oc1ccc2c(c1)OC[C@H]2CC(=O)O` [Example 96, 2-((S)-6-((R)-4-(2,6-Dimethyl-4-(1-methyl-1H-tetrazol-5-yl)phenyl)-7-fluoro-2,3-dihydro-1H-inden-1-yloxy)-2,3-dihydrobenzofuran-3-yl)acetic acid] was 20 nM; that for `Cc1cc(-c2ccn(C)c(=O)n2)cc(C)c1-c1ccc(F)c2c1CC[C@H]2Oc1ccc2c(c1)OC[C@H]2CC(=O)O` [Example 97, 2-((S)-6-((R)-4-(2,6-Dimethyl-4-(1-methyl-2-oxo-1,2-dihydropyrimidin-4-yl)phenyl)-7-fluoro-2,3-dihydro-1H-inden-1-yloxy)-2,3-dihydrobenzofuran-3-yl)acetic acid] was 5 nM.
The result for `Cc1cc(-c2nnn(CC(C)(C)O)n2)cc(C)c1-c1ccc(F)c2c1CC[C@H]2Oc1ccc2c(c1)OC[C@H]2CC(=O)O` [Example 98, 2-((S)-6-((R)-7-Fluoro-4-(4-(2-(2-hydroxy-2-methylpropyl)-2H-tetrazol-5-yl)-2,6-dimethylphenyl)-2,3-dihydro-1H-inden-1-yloxy)-2,3-dihydrobenzofuran-3-yl)acetic acid] reads 3 nM; that for `Cc1cc(-c2nnn(C(C)(C)CO)n2)cc(C)c1-c1ccc(F)c2c1CC[C@H]2Oc1ccc2c(c1)OC[C@H]2CC(=O)O` [Example 99, 2-((S)-6-((R)-7-Fluoro-4-(4-(2-(1-hydroxy-2-methylpropan-2-yl)-2H-tetrazol-5-yl)-2,6-dimethylphenyl)-2,3-dihydro-1H-inden-1-yloxy)-2,3-dihydrobenzofuran-3-yl)acetic acid], 4 nM; that for `CC(C)(C)COc1ncccc1-c1ccc(F)c2c1CC[C@H]2Oc1ccc2c(c1)OC[C@H]2CC(=O)O` [Example 100], 58 nM.
For `Cc1cc(-c2ccc(=O)n(C)n2)cc(C)c1-c1ccc(F)c2c1CC[C@H]2Oc1ccc2c(c1)OC[C@H]2CC(=O)O` [Example 101, 2-((S)-6-((R)-4-(2,6-Dimethyl-4-(1-methyl-6-oxo-1,6-dihydropyridazin-3-yl)phenyl)-7-fluoro-2,3-dihydro-1H-inden-1-yloxy)-2,3-dihydrobenzofuran-3-yl)acetic acid], the EC50 was 3 nM.
For `CN(C)C(=O)c1ccccc1-c1ccc(F)c2c1CC[C@H]2Oc1ccc2c(c1)OC[C@H]2CC(=O)O` [Example 102, 2-((3S)-6-((1R)-4-(2-(Dimethylcarbamoyl)phenyl)-7-fluoro-2,3-dihydro-1H-inden-1-yloxy)-2,3-dihydrobenzofuran-3-yl)acetic acid], the response was half-maximal at 2240 nM (EC50).

The values above are taken from US8642585B2, “Indanyloxydihydrobenzofuranylacetic acids” (Boehringer Ingelheim International GmbH, priority 2012, dated 2014).
